Read-outs that look alike come from different tables or passages of the source.
Experiments:
human B1 receptor = target: T1, human B1 receptor (Homo sapiens, UniProt P46663); experiment: Calcium flux assay (FLIPR) with recombinant CHO-K1 cells expressing human B1 receptor; type: cell-based
T1 construct: host or cells: CHO-K1
T1 sequence (P46663 1-353): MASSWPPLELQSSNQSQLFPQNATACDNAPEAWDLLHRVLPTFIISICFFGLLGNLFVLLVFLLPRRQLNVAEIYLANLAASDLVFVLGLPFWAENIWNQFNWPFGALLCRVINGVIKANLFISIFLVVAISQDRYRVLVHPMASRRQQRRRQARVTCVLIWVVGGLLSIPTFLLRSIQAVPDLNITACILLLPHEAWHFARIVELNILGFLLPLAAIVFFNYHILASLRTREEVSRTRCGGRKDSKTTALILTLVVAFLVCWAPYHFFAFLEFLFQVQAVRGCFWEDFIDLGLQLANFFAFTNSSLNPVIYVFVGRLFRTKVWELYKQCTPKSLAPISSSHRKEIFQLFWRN
Method in brief: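 Indicator-loaded CHO-K1 cells expressing human B1 receptor were pre-incubated with compound (8 concentrations, triplicate, 1% DMSO) for 30 min at 28° C, in assay buffer with or without 0.1% BSA (hB1 IC50 vs free IC50). They were then challenged with Lys-(Des-Arg)-bradykinin from plates at 3.5×EC90, with peak FLIPR fluorescence read at 538 nm. IC50 was fitted from % response between DMSO and full block by 20 μM Lys-(Des-Arg-Leu)-bradykinin.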

IL-6 secretion = experiment: Bradykinin B1 receptor agonist-induced secretion of IL-6 in human IMR-90 cells; type: cell-based; details: IMR-90 cells stimulated with 0.1 μM Lys-[Des-Arg9]Bradykinin and 0.1 μM Sar-[D-Phe8]-des-Arg9-Bradykinin for 5 hours
Description: (§1) Inhibitory Activity on Bradykinin B1 Receptor Agonist-Induced Secretion of IL-6 and IL-8 in Human IMR-90 Cells
(§2) The effect of the example compounds on cytokine secretion has been investigated in the human fetal lung fibroblast IMR-90 cell line. Here the induction of the cytokine secretion was induced by the Bradykinin B1 receptor agonists Lys-[Des-Arg9]Bradykinin and Sar-[D-Phe8]-des-Arg9-Bradykinin leading to the activation of the Bradykinin B1 receptor-driven signaling pathway.
(§3) IMR-90 cells were cultured in Eagle's Minimum Essential Medium (EMEM) containing 2 mM L-glutamine, 1 g/L glucose, 1.5 g/L NaHCO3, 1 mM sodium pyruvate and non-essential amino acids (ATCC, 30-2003™) supplemented with 10% FBS (Biochrom, S0615) and 50 U/mL Penicillin, 50 μg/mL Streptomycin (PAA, P11-010). The assay was performed in EMEM and a cell density of […] IMR-90 cells/96-well. The example compounds have been serial diluted in 100% DMSO and evaluated at 8 different concentrations within the range of 3 nM and 10 μM and a final DMSO concentration of 0.4%. […] The amount of IL-6 and IL-8 in the supernatant was determined using the Human Prolnflammatory 9-Plex (MSD, K15007B) according to manufacturer's instruction. The cell viability was measured using the CellTiter-Glo Luminescent Assay (Promega, G7571) following the manufacturers protocol. […]

IL-8 secretion = experiment: Bradykinin B1 receptor agonist-induced secretion of IL-8 in human IMR-90 cells; type: cell-based; details: IMR-90 cells stimulated with 0.1 μM Lys-[Des-Arg9]Bradykinin and 0.1 μM Sar-[D-Phe8]-des-Arg9-Bradykinin for 5 hours
Description: as §1, §2, §3

IMR-90 cells = experiment: Cell viability of stimulated IMR-90 cells (CellTiter-Glo); type: cell-based, human
Procedure: IMR-90 cells were cultured in Eagle's Minimum Essential Medium (EMEM) containing 2 mM L-glutamine, 1 g/L glucose, 1.5 g/L NaHCO3, 1 mM sodium pyruvate and non-essential amino acids (ATCC, 30-2003™) supplemented with 10% FBS (Biochrom, S0615) and 50 U/mL Penicillin, 50 μg/mL Streptomycin (PAA, P11-010). The assay was performed in EMEM and a cell density of […] IMR-90 cells/96-well. The example compounds have been serial diluted in 100% DMSO and evaluated at 8 different concentrations within the range of 3 nM and 10 μM and a final DMSO concentration of 0.4%. The IMR-90 cells have been incubated with the respective concentration of the example compound for 30 min. The enhanced secretion of IL-6 and IL-8 was induced by the stimulation of these cells with 0.1 μM Lys-[Des-Arg9]Bradykinin (Tocris, 3225) and 0.1 μM Sar-[D-Phe8]-des-Arg9-Bradykinin (Tocris, 3230) for 5 hours at 37° C. and 5% CO2. Further, cells have been treated with Lys-[Des-Arg9] Bradykinin and Sar-[D-Phe8]-des-Arg9-Bradykinin as neutral control and with 0.1% DMSO as inhibitor control. The amount of IL-6 and IL-8 in the supernatant was determined using the Human Prolnflammatory 9-Plex (MSD, K15007B) according to manufacturer's instruction. The cell viability was measured using the CellTiter-Glo Luminescent Assay (Promega, G7571) following the manufacturers protocol.

[1] = target: T2, native human B1 receptors (Homo sapiens, UniProt P46663); experiment: Calcium flux assay (FLIPR) with IMR-90 human fibroblasts for Bradykinin B1 receptor antagonist; type: cell-based; details: IMR-90 human foetal lung fibroblasts after induction with human IL-1; 0.1% BSA in assay buffer; read-out: hB1 IC50 IMR90
T2 construct: which express native human B1 receptors after induction with human IL-1; Coriell Institute; host or cells: IMR-90 human foetal lung fibroblasts, induced with human IL-1beta
T2 sequence (P46663 1-353): T1 sequence (P46663 1-353)
Procedure: Calcium Flux Assay (FLIPR) with Human Fibroblasts for Bradykinin B1 Receptor Antagonist (hB1 IMR-90 IC50)
The Calcium flux Assay was carried out utilising IMR-90 human foetal lung fibroblasts (American Type Culture Collection, Rockville, Md.; and Coriell Institute, Camden, N.J.), which express native human B1 receptors after induction with human IL-1[…].
The fibroblasts were cultured in complete growth media comprised of Dulbecco's modified Eagle's medium (DMEM; Sigma) containing 10% foetal bovine serum, 4 mM L-glutamine, and 1% nonessential amino acids. The cells were maintained in a humidified atmosphere with 5% CO2 at 37° C. and were sub-cultured at a ratio of 1:3, every other day.
For the assay, IMR-90 fibroblasts were harvested using TrypLE Express (GIBCO/Invitrogen) and seeded into 384-well plates (Corning Cellbinding Surface, Cat. 3683) at a density of 15000 cells/well. The following day, cells were treated with 0.35 ng/mL human IL-1[…] in 10% FBS/MEM for 3 h to up-regulate B1 receptors. Induced cells were loaded with fluorescent calcium indicator by incubation with 2.5 μM Fluo-4/AM (Invitrogen) at 37° C., 5% CO2 for 2 h in the presence of 2.5 mM probenecid in 1% FBS/MEM. Extracellular dye was removed by washing with assay buffer (2.5 mM probenecid and 0.1% BSA in 20 mM HEPES/HBSS without bicarbonate or phenol red, pH 7.5). Example compounds were assayed at 8 concentrations in triplicate. […] A peptide antagonist Lys-(Des-Arg-Leu)-Bradykinin (Bachem, Brackley) at 20 µM was used to determine the full inhibition as control. IC50 values were determined by the same way described for the FLIPR assay with recombinant cells.

[2] = presence of 0.1% BSA in assay buffer, read-out: hB1 IC50

Row | IC50 (human B1 receptor; absence of 0.1% BSA in assay buffer, read-out: hB1 free IC50) [nM] | IC50 (human B1 receptor; [2]) [nM] | IC50 (IL-6 secretion) [nM] | IC50 (IL-8 secretion) [nM] | IC50 [1] [nM] | SMILES | effect on the cell viability (IMR-90 cells)
1 | 10 | 25 | 192 | 164 |  | CC(C)(C)c1cn(-c2ccc(NC(=O)C3CC3c3ccc(Cl)cc3)cc2-c2nnn[nH]2)cn1 (racemic) [Example 48, N-[4-(4-tert-butyl-1H-imidazol-1-yl)-3-(1H-tetrazol-5-yl)phenyl]-2-(4-chlorophenyl)cyclo-propanecarboxamide] | no effect
2 |  | 10 |  |  | 9 | Cc1cccc(C2CC2C(=O)Nc2ccc(-c3ccc(OC(C)C)nc3)c(-c3nnn[nH]3)c2)c1 (racemic) [Example 78, N-[4-(6-isopropoxypyridin-3-yl)-3-(1H-tetrazol-5-yl)phenyl]-2-(3-methylphenyl)cyclopro-panecarboxamide] | 
3 |  | 27 |  |  | 20 | COc1ccc(-c2ccc(NC(=O)C3CC3C3CCCCC3)cc2-c2nnn[nH]2)cc1OC (single isomer, unassigned) [Example 14, 2-Cyclohexyl-N-[3′,4′-dimethoxy-2-(1H-tetrazol-5-yl)biphenyl-4-yl]cyclopropane-carboxamide] | 
